The subject of assay [1] is carrageenan-induced thermal hyperalgesia. Description: rat carrageenan footpad thermal hyperalgesia assay (Hargreaves test). To be noted: gabapentin 10-100 mg/kg SC, carprofen 1-10 mg/kg SC, combination in fixed 10:1 ratio. It is filed as in vivo. As for the experimental part:
The aim of this experiment was to characterize the anti-nociceptive and anti-inflammatory effects of gabapentin administered in combination with carprofen in the rat. In this example, gabapentin, carprofen, and the combination of gabapentin and carprofen were evaluated in a standard rat carrageenan footpad thermal hyperalgesia assay. This assay utilizes an extract of seaweed (carrageenan) that, when injected into the footpad of test animals, causes a sterile inflammation, thereby lowering the pain threshold. […]
Each data point represents the mean and standard error of mean. […] The theoretical dose-additive line for a 10:1 dose ratio was determined (dotted line) as described (Tallarida, 1992). The experimental determination of a 10:1 dose ratio was determined (gabapentin-carprofen mixture 10:1) and a shift to the left of the theoretical dose-additive line was found. […]
Dose-effect curves were first determined for (1) gabapentin by itself and (2) carprofen by itself. The ED50 value of each agent was determined, as was the time to peak effect. […]
Carrageenan-induced thermal hyperalgesia: Rats were acclimated to a testing chamber whose glass floor was maintained at 25° C. One hour later, a high intensity beam of light was focused through the glass on the ventral surface of each hind paw, and the latency to reflex withdrawal of the paw from the light beam was measured to the nearest 0.1 second. […]

The subject of assay [2] is COX-2 isozyme compared to the COX-1 isozyme. Particulars: dogs, cited from earlier work.
For assay [3] the test system is unchanged. To be noted: cats; American Journal of Veterinary Research, 2001, 62, 11, 1755; cited from earlier work.
Assay [4] shares this test system. To be noted: horses; American Journal of Veterinary Research, 2001, 62, 11, 1755; cited from earlier work.

Read-outs that look alike come from different tables or passages of the source.

As for `CC(C(=O)O)c1ccc2c(c1)[nH]c1ccc(Cl)cc12` (stereo not drawn) [carprofen, 6-chloro-α-methyl-9H-carbazole-2-acetic acid], the “antihyperalgesic action (in words)” value in assay [1] is on record as “antihyperalgesic actions”. Also, the “selectivity for the COX-2 isozyme compared to the COX-1 isozyme” value in assay [2] (American Journal Veterinary Research, 2000, 61, 7, 802) was 1.75 fold; in assay [2] (American Journal Veterinary Research, 2002, 63, 1, 91), 16.8 fold; in assay [2] (American Journal of Veterinary Research, 2001, 62, 11, 1755) it was 6.5 fold; in assay [2] (WO 98/50033), 129 fold; in assay [3], 5.5 fold; in assay [4] it was 1.6 fold.

For `NCC1(CC(=O)O)CCCCC1` [gabapentin, 1-(aminomethyl)-cyclohexylacetic acid], the “antihyperalgesic action (in words)” value in assay [1] was “antihyperalgesic actions”.

The record behind these values is patent US20080269310A1, “Synergistic Combinations” (priority 2005, published 2008).
